Experimental data: PMC11605156, “Triterpenoids from Ganoderma lucidum inhibit cytochrome P450 enzymes interfering with the metabolic process of specific clinical drugs” (Frontiers in Pharmacology, 2024)

How the values were obtained:
[1] = target: CYP2C19 (Homo sapiens, UniProt P33261); test: CYP2C19 inhibition, S-mephenytoin probe in human liver microsomes; conditions: S-mephenytoin 50 μM, 30 min; for activity at 30 min: human, human liver microsomes, pH 7.4, probe S-mephenytoin 50 μM, Residual activity (%) CYP2C19, HLM 0.5 mg/mL
Chain of CYP2C19 (P33261 whole entry): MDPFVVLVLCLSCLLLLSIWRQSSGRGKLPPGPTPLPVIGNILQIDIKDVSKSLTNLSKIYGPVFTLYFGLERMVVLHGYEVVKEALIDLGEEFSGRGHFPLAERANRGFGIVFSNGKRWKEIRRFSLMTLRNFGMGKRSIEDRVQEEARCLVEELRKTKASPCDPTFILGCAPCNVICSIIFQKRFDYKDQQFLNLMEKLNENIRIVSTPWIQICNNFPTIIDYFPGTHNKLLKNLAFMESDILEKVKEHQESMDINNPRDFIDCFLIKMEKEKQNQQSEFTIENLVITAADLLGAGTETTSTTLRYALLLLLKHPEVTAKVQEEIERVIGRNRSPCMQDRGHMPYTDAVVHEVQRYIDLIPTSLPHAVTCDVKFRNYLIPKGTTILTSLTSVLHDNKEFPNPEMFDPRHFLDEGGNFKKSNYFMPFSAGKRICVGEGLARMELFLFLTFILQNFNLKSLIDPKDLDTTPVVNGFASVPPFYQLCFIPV
Protocol: (§1) The total volume of the in vitro metabolic incubation system is 200 μL. The probe substrate concentration in the system is shown in Supplementary Table S1. […] The reaction sample was preheated in a constant temperature mixer at 37°C. Then NADP^+ was added to the system to initiate the reaction. The reaction time is 30 min, and 100 μL acetonitrile will be added on time to quickly terminate the reaction, followed by centrifugation at 4°C and 20,000 g for 20 min. The supernatant was analyzed using liquid chromatography tandem mass spectrometry (LC-MS/MS), and the activity of CYP enzymes was evaluated by the generation of probe metabolites. The mass spectrometry information of probe substrates is shown in Supplementary Table S3.
(§2) The isolated triterpenoids (1–66) were used to establish a compounds library. The inhibitory effects of 66 triterpenoids from G. lucidum on seven subtypes of CYP enzymes (CYP1A2, 2A6, 2D6, 2B6, 2C9, 2C19, 3A4) were evaluated followed the above-mentioned experimental procedures.
(§3) Table S1. The information of probes for CYPs activity assay

[2] = target: CYP2D6 (Homo sapiens, UniProt P10635); test: CYP2D6 inhibition, dextromethorphan probe in human liver microsomes; conditions: for activity at 30 min: human, human liver microsomes, pH 7.4, probe dextromethorphan 5 μM, Residual activity (%) CYP2D6, HLM 0.5 mg/mL
Chain of CYP2D6 (P10635 whole entry): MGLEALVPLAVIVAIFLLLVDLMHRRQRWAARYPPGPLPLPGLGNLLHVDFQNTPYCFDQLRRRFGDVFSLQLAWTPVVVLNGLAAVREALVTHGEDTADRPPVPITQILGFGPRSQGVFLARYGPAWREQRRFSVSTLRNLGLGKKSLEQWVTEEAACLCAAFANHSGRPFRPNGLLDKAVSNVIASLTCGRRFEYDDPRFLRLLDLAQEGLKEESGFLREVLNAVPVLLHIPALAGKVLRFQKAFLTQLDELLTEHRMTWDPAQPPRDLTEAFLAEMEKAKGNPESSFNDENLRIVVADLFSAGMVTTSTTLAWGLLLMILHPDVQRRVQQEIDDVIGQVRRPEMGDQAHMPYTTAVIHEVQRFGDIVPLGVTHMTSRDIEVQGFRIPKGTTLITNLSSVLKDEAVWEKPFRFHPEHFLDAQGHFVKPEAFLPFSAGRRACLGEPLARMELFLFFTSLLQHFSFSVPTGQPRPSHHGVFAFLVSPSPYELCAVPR
Protocol: as §1, §2, §3

[3] = target: T1, CYP1A2 (Homo sapiens, UniProt P05177); test: CYP1A2 inhibition, probe/drug metabolism in human liver microsomes (LC-MS/MS); conditions: for activity at 30 min: Residual activity (%) CYP1A2, HLM 0.5 mg/mL; for activity at 30 min / Residual activity (%) CYP1A2: phenacetin 40 μM, 30 min; for Residual activity (%) CYP1A2: HLM 0.5 mg/mL
T1 sequence (P05177 1-516): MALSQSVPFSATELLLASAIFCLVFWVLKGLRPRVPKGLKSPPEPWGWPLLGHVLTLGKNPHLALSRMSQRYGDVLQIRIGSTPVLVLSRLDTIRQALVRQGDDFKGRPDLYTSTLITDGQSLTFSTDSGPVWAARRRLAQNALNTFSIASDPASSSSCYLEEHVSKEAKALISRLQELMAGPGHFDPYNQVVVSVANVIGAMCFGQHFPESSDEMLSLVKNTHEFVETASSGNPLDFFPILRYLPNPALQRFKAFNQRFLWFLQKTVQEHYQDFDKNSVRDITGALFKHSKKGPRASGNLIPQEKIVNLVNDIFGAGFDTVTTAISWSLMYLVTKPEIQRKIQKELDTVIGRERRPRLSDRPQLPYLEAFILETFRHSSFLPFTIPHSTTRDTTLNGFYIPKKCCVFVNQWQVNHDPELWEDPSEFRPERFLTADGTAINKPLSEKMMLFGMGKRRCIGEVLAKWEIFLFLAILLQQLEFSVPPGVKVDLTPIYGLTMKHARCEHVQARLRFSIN
Protocol: as §1, §2
(§4) For 16 clinical drugs metabolized by CYP enzymes, potential DDI studies were conducted on triterpenoids (6, 25) of G. lucidum, and IC50 values were measured.
(§5) Clinical drugs: Phenacetin, melatonin, clozapine and riluzole are metabolized by CYP1A2. Bupropion, artemisinin, efavirenz and sertraline are metabolized by CYP2B6. Diclofenac, valsartan, glimepiride and glibenclamide are metabolized by CYP2C9. Midazolam, imatinib, simvastatin and diltiazem are metabolized by CYP3A4.
as §3
(§6) Table S2. Information of clinical drugs

[4] = target: T2, CYP2A6 (Homo sapiens, UniProt P11509); test: CYP2A6 inhibition, coumarin probe in human liver microsomes; conditions: for activity at 30 min: human, human liver microsomes, pH 7.4, probe coumarin 2 μM, Residual activity (%) CYP2A6, HLM 0.5 mg/mL
T2 sequence (P11509 1-494): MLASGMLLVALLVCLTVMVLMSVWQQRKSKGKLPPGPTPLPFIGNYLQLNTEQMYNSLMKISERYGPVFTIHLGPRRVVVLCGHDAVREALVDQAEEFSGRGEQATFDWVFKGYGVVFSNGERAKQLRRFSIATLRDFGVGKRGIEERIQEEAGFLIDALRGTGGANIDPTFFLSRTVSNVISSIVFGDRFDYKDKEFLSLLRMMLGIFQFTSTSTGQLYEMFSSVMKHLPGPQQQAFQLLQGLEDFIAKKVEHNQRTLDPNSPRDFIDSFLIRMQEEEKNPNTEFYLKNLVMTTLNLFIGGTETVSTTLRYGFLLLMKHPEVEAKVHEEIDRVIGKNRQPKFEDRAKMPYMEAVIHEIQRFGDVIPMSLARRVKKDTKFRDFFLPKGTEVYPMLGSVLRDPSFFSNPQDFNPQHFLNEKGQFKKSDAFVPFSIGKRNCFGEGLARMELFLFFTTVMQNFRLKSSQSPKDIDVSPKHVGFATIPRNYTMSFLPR
Protocol: as §1, §2, §3

[5] = target: CYP2C9 (Homo sapiens, UniProt P11712); test: CYP2C9 inhibition, probe/drug metabolism in human liver microsomes; conditions: diclofenac 4 μM, 30 min; for activity at 30 min: human, human liver microsomes, pH 7.4, probe diclofenac 4 μM, Residual activity (%) CYP2C9, HLM 0.5 mg/mL
Chain of CYP2C9 (P11712 whole entry): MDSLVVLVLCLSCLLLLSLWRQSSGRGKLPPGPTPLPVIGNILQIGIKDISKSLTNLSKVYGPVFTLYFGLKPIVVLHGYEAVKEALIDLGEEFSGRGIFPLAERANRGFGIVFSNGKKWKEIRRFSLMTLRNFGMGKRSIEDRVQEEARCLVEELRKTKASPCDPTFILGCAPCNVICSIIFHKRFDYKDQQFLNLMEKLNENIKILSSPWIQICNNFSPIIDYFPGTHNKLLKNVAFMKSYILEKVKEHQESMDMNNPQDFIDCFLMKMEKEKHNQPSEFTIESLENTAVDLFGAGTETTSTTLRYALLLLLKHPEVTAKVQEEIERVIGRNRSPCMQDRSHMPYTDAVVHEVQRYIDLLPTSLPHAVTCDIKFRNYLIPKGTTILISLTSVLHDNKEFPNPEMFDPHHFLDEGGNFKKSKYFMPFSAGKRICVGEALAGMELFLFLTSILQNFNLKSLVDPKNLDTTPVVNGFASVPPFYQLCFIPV
Protocol: as §1, §2, §4, §5, §3, §6

[6] = target: CYP3A4 (Homo sapiens, UniProt P08684); test: CYP3A4 inhibition, probe/drug metabolism in human liver microsomes; conditions: midazolam 5 μM, 30 min; for activity at 30 min: human, human liver microsomes, pH 7.4, probe midazolam 5 μM, Residual activity (%) CYP3A4, HLM 0.5 mg/mL
Chain of CYP3A4 (P08684 whole entry): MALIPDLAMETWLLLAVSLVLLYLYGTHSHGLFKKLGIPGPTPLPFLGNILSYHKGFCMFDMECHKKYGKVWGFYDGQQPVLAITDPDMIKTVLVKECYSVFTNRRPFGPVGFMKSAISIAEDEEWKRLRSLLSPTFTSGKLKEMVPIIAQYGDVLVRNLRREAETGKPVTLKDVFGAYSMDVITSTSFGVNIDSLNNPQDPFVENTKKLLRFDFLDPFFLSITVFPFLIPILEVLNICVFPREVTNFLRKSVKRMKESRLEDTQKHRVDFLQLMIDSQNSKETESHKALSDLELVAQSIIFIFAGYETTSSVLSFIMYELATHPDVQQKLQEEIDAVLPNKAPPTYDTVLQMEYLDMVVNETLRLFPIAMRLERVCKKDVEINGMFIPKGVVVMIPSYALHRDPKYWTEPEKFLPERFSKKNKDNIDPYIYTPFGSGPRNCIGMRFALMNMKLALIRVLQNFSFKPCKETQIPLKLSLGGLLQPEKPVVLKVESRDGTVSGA
Protocol: as §1, §2, §4, §5, §3, §6

[7] = target: T3, CYP2B6 (Homo sapiens, UniProt P20813); test: CYP2B6 inhibition, probe/drug metabolism in human liver microsomes; conditions: bupropion 75 μM, 30 min; for activity at 30 min: human, human liver microsomes, pH 7.4, probe bupropion 75 μM, Residual activity (%) CYP2B6, HLM 0.5 mg/mL
T3 sequence (P20813 1-491): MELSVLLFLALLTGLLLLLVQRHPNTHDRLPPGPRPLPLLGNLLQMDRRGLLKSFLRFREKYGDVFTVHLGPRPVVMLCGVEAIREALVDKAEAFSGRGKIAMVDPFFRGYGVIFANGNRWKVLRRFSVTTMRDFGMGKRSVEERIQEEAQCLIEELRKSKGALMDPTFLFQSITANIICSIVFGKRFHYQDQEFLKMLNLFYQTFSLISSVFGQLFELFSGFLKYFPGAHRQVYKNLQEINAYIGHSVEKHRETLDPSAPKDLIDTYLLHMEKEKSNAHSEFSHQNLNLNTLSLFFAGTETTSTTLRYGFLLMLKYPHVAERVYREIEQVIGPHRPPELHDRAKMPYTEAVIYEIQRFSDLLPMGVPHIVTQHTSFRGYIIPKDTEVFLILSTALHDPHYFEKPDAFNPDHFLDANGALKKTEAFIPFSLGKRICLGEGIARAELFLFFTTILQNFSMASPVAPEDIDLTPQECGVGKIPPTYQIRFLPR
Protocol: as §1, §2, §4, §5, §3, §6

[8] = IC50 against CYP 1A2, substrate phenacetin 40 μM, HLM
[9] = human, human liver microsomes, pH 7.4, probe phenacetin 40 μM

| SMILES | activity at 30 min [1] [%] | activity at 30 min [2] [%] | IC50 [3, 8] [µM] | activity at 30 min [3, 9] [%] | activity at 30 min [4] [%] | activity at 30 min [5] [%] | activity at 30 min [6] [%] | activity at 30 min [7] [%] | Residual activity (%) CYP1A2 [3] [%] | IC50 at 30 min ([3]; human, human liver microsomes, pH 7.4, probe phenacetin 40 μM, IC50 against CYP 1A2, substrate phenacetin 40 μM, HLM) [µM] | Residual activity (%) CYP2C19 ([1]; HLM 0.5 mg/mL) [%] | Residual activity (%) CYP2D6 ([2]; HLM 0.5 mg/mL, dextromethorphan 5 μM, 30 min) [%] | Residual activity (%) CYP2A6 ([4]; HLM 0.5 mg/mL, coumarin 2 μM, 30 min) [%] | Residual activity (%) CYP2C9 ([5]; HLM 0.5 mg/mL) [%] | Residual activity (%) CYP3A4 ([6]; HLM 0.5 mg/mL) [%] | Residual activity (%) CYP2B6 ([7]; HLM 0.5 mg/mL) [%] |
| --- | --- | --- | --- | --- | --- | --- | --- | --- | --- | --- | --- | --- | --- | --- | --- | --- |
| CC(=O)OC1C(=O)C2=C(C(O)CC3C2(C)CCC(O)C3(C)C)C2(C)C(=O)CC(C(C)=CC(=O)CC(C)C(=O)O)C12C (stereo not drawn) [Compound 7] | 74.81 ± 0.08 | 104 ± 4.79 | 12.8 ± 1.47 | 32.5 ± 1 | 88.05 ± 0.74 | 90 ± 1.41 | 94.6 ± 1.15 | 90.6 ± 2.12 | – | – | – | – | – | – | – | – |
| CC(CC(=O)CC(C)C1CC(=O)C2(C)C3=C(C(=O)CC12C)C1(C)CCC(=O)C(C)(CO)C1CC3O)C(=O)O (stereo not drawn) [Compound 8] | 68.6 ± 7.25 | 76.9 ± 0.9 | 11.3 ± 0.31 | 30.2 ± 3.05 | 79.1 ± 0.81 | 94.8 ± 5.64 | 90.8 ± 3.82 | 91.6 ± 8.64 | – | – | – | – | – | – | – | – |
| CC(=O)OC1C(=O)C2=C(C(=O)CC3C(C)(C)C(=O)CCC23C)C2(C)C(=O)CC(C(C)CC(=O)CC(C)C(=O)O)C12C (stereo not drawn) [Compound 9] | 105 ± 6.46 | 94 ± 5.67 | – | – | 91.5 ± 2.1 | 77 ± 5.67 | 93.7 ± 4.04 | 94.3 ± 1.83 | 89.44±0.96 | – | – | – | – | – | – | – |
| CC(=CC(=O)CC(C)C(=O)O)C1CC(=O)C2(C)C3=C(C(=O)C(O)C12C)C1(C)CCC(O)C(C)(C)C1CC3=O (stereo not drawn) [Compound 17] | 85.5 ± 2.57 | 99.4 ± 3.9 | 21.8 ± 1.15 | 54.4 ± 8.91 | 91.89 ± 0.88 | 90 ± 1.36 | 97.6 ± 2.29 | 76.6 ± 7.68 | – | – | – | – | – | – | – | – |
| CC(=O)OC1C(=O)C2=C(C(=O)CC3C(C)(C)C(=O)CCC23C)C2(C)C(=O)CC(C(C)CC(O)C=C(C)C(=O)O)C12C (stereo not drawn) [Compound 31] | 94.8 ± 4.46 | 103 ± 3.3 | – | 53.7 ± 1.44 | 86.17 ± 0.44 | 80.99 ± 0.51 | 104 ± 1.72 | 71.2 ± 4.24 | – | 29 ± 6.91 | – | – | – | – | – | – |
| CC1(C)CCC2(C(=O)O)CCC3(C)C(=C2C1)C=CC1C2(C)CCC(O)C(C)(C)C2CCC13C (stereo not drawn) [Compound 36] | 84.38 ± 0.53 | 72.7 ± 10.4 | – | 81.9 ± 5.81 | 87 ± 1.46 | 82.9 ± 2.75 | 55.4 ± 1.19 | 88.6 ± 6.9 | – | – | – | – | – | – | – | – |
| CC1(C)CCC2(C(=O)O)CCC3(C)C(=CC(=O)C4C5(C)CCC(O)C(C)(C)C5CCC43C)C2C1 (stereo not drawn) [Compound 37] | 97.6 ± 4.86 | 104 ± 3.22 | – | 88 ± 3.49 | 104 ± 1.4 | 94.8 ± 3.33 | 60.1 ± 3.57 | 94.3 ± 3.45 | – | – | – | – | – | – | – | – |
| CC(CC(=O)CC(C)C1CC(O)C2(C)C3=C(C(=O)CC12C)C1(C)CCC(=O)C(C)(C)C1CC3)C(=O)O (stereo not drawn) [Compound 42] | 79.3 ± 0.38 | 103 ± 3.3 | 21.4 ± 5.21 | 43.8 ± 4.18 | 83.7 ± 8.67 | 62.8 ± 2.72 | 96.8 ± 4.2 | 89.1 ± 3.71 | – | – | – | – | – | – | – | – |
| CC(=O)OC1C(=O)C2=C(C(=O)CC3C(C)(C)C(=O)CCC23C)C2(C)C(=O)CC(C(C)CC(=O)CC(C)C(=O)O)C12C (stereo not drawn) [Compound 50] | – | – | – | – | – | – | – | – | 62.18±2.53 | – | 116.59±7.39 | 93.94±6.92 | 89.71±3.49 | 96.49±3.97 | 98.83±1.66 | 77.48±4.68 |
| CC(=CC(=O)CC(C)C(=O)O)C1CC(=O)C2(C)C3=C(C(=O)CC12C)C1(C)CCC(=O)C(C)(C)C1CC3O (stereo not drawn) [Compound 51] | 110 ± 3.54 | 89.5 ± 3.3 | 38.6 ± 9.4 | 58 ± 2.08 | 86 ± 4.07 | 99.8 ± 6.62 | 94.1 ± 7.18 | 77.8 ± 7.96 | – | – | – | – | – | – | – | – |
| CC(=O)OC1C(=O)C2=C(C(=O)CC3C2(C)CCC(O)C3(C)C)C2(C)C(=O)CC(C3(C)CCC(=O)O3)C12C (stereo not drawn) [Compound 56] | 109 ± 6.43 | 86.9 ± 1.32 | 34.2 ± 6.9 | 56 ± 0.69 | 72.3 ± 1.11 | 92.5 ± 0.99 | 82.8 ± 1.1 | 84.1 ± 0.94 | – | – | – | – | – | – | – | – |
